Source: ChEMBL document CHEMBL4417623, “Methods and compositions for inhibiting rho/mrtf-mediated diseases and conditions” (2015)
Calls of active or inactive are those of the source. No cut-off for these calls is given here.

Assays:
[1] = Inhibition of Rho/MRTF/SRF mediated signaling (unknown origin) assessed as reduction in MRTF/SRF-regulated gene transcription by SRE-luciferase expression based assay; set-up: species or system Homo sapiens
[2] = Inhibition of Rho/MRTF/SRF mediated signaling (unknown origin) assessed as reduction in MRTF/SRF-regulated gene transcription by SRE-luciferase expression based assay relative to control; set-up: species or system Homo sapiens
Homo sapiens = species: Homo sapiens; assay: Inhibition of Rho/MRTF/SRF mediated signaling in human dermal fibroblasts assessed as suppression of myofibroblast activation by measuring reduction in TGFbeta-induced alpha-SMA expression incubated for 3 days relative to perfenidone
Mus musculus [3] = species: Mus musculus; assay: Inhibition of Rho/MRTF/SRF mediated signaling in mouse NIH/3T3 cells assessed as inhibition of fibrosis markers by measuring reduction in LPA-induced ACTA2 mRNA expression by qRT-PCR assay relative to perfenidone; assay type: cell-based
Mus musculus [4] = assay: Suppression of fibrosis in C57bl/6 mouse model of bleomycin-induced dermal fibrosis at 100 mg/kg, bid dosed via oral gavage; assay type: functional, organism-based
Mus musculus [5] = species: Mus musculus; assay: Inhibition of Rho/MRTF/SRF mediated signaling in mouse NIH/3T3 cells assessed as inhibition of fibrosis markers by measuring reduction in LPA-induced COL1A2-hn mRNA expression by qRT-PCR assay relative to perfenidone; assay type: cell-based

COc1cccc(-c2nnc(SCCC(=O)O)o2)c1 gave an IC50 [1] of 3600 nM.
Work on CCOC(=O)CCSc1nnc(-c2ccc(Cl)cc2Cl)o1 yielded an IC50 [1] of 2.6 nM.
CC(ONC(=O)c1cc(C(F)(F)F)cc(C(F)(F)F)c1)C(=O)Nc1ccc(Cl)cc1 (stereo unspecified) showed an IC50 [2] of 1000 nM.
In the case of O=C(O)CCSc1nnc(-c2ccc(Cl)cc2)o1, the IC50 [1] is reported as 340 nM.
With O=C(O)CCSc1nnc(-c2cccc(Cl)c2)o1 the IC50 [1] was 1500 nM.
For O=C(O)CCSc1nnc(-c2ccccc2)o1, the IC50 [1] was 3500 nM.
Molecule COc1ccc(-c2nnc(SCCC(=O)O)o2)c(Cl)c1 has an IC50 [1] of 2.6 nM.
With O=C(Nc1ccc(Cl)cc1)C1CCCN(C(=O)c2cccc(-c3ccco3)c2)C1 (stereo unspecified) the fold change (FC) (Homo sapiens) was 100, the fold change (FC) (Mus musculus [3]) was 100 and the Activity (Mus musculus [4]) was “Active”. It also gave a fold change (FC) (Mus musculus [5]) of 100.
Cc1ccc(-c2nnc(SCCC(=O)O)o2)cc1 gave an IC50 [1] of 34 nM.
In the case of Cc1ccc(-c2nnc(SCCC(=O)O)o2)c(Cl)c1, the IC50 [1] is reported as 1.5 nM.
With O=C(O)CCCSc1nnc(-c2ccc(Cl)cc2Cl)o1 the IC50 [1] was 1.8 nM.
With COc1ccc(-c2nnc(SCCC(=O)O)o2)cc1 the IC50 [1] was 160 nM.
Cc1cccc(-c2nnc(SCCC(=O)O)o2)c1 gave an IC50 [1] of 180 nM.
